For ten compounds, EC50 results are on record in patent publication US9920090B2, “Betulinic acid derivatives with HIV maturation inhibitory activity” (priority 2014, dated 2018).

The assay has as its system recombinant NL4-3 virus (nef section replaced with Renilla luciferase gene, Gag P373S). Kind of assay: HIV Cell Culture Assay (luciferase reporter virus in MT-2 cells). Particulars: NL43. The class given is cell-based. The method, then:
MT-2 cells and 293T cells were obtained from the NIH AIDS Research and Reference Reagent Program. MT-2 cells were propagated in RPMI 1640 media supplemented with 10% heat inactivated fetal bovine serum, […]. The 293T cells were propagated in DMEM media supplemented with 10% heat inactivated fetal bovine serum (FBS), 100 units/mL penicillin G and 100 μg/mL streptomycin. The proviral DNA clone of NL4-3 was obtained from the NIH AIDS Research and Reference Reagent Program. A recombinant NL4-3 virus, in which a section of the nef gene from NL4-3 was replaced with the Renilla luciferase gene, was used as a reference virus. In addition, residue Gag P373 was converted to P373S. Briefly, the recombinant virus was prepared by transfection of the altered proviral clone of NL4-3. Transfections were performed in 293T cells using LipofectAMINE PLUS from Invitrogen (Carlsbad, Calif.), according to manufacturer's instruction. The virus was titered in MT-2 cells using luciferase enzyme activity as a marker. Luciferase was quantitated using the Dual Luciferase kit from Promega (Madison, Wis.), with modifications to the manufacturer's protocol. The diluted Passive Lysis solution was pre-mixed with the re-suspended Luciferase Assay Reagent and the re-suspended Stop & Glo Substrate (2:1:1 ratio). Fifty (50) μL of the mixture was added to each aspirated well on assay plates and luciferase activity was measured immediately on a Wallac TriLux (Perkin-Elmer). Antiviral activities of inhibitors toward the recombinant virus were quantified by measuring luciferase activity in cells infected for 4-5 days with NLRluc recombinants in the presence serial dilutions of the inhibitor.
Background: A reporter such as luciferase makes a cellular process visible.

What is called EC50 is the midpoint of the concentration-response curve. In the case of `CC(C)[C@@H]1CC[C@]2(N)CC[C@]3(C)[C@H](CC[C@@H]4[C@@]5(C)C(=O)C=C(c6ccc(C(=O)O)cc6)C(C)(C)[C@@H]5CC[C@]43C)[C@@H]12` [Example 9, 4-((1S,3aS,5aR,5bR,7aS,11aS,11bS,13aR,13bR)-3a-amino-1-isopropyl-5a,5b,8,8,11a-pentamethyl-11-oxo-2,3,3a,4,5,5a,5b,6,7,7a,8,11,11a,11b,12,13,13a,13b-octadecahydro-1H-cyclopenta[a]chrysen-9-yl)benzoic acid], the EC50 worked out at 1.2 nM.

Turning to `CC(C)[C@@H]1CC[C@]2(C(=O)O)CC[C@]3(C)[C@H](CC[C@@H]4[C@@]5(C)C[C@@H]6O[C@]6(c6ccc(C(=O)O)cc6)C(C)(C)[C@@H]5CC[C@]43C)[C@@H]12` [Example 11, (1S,3aS,5aR,5bR,7aR,8aS,9aS,10aR,10bR,12aR,12bR)-8a-(4-carboxyphenyl)-1-isopropyl-5a,5b,8,8,10a-pentamethylicosahydro-1H-cyclopenta[7,8]chryseno[2,3-b]oxirene-3a-carboxylic acid], the EC50 was 1310 nM.

For the compound `CC(C)[C@@H]1CC[C@]2(NCCN3CCS(=O)(=O)CC3)CC[C@]3(C)[C@H](CC[C@@H]4[C@@]5(C)C(=O)C=C(c6ccc(C(=O)O)cc6)C(C)(C)[C@@H]5CC[C@]43C)[C@@H]12` [Example 10, 4-((1S,3aS,5aR,5bR,7aS,11aS,11bS,13aR,13bR)-3a-((2-(1,1-dioxidothiomorpholino)ethyl)amino)-1-isopropyl-5a,5b,8,8,11a-pentamethyl-11-oxo-2,3,3a,4,5,5a,5b,6,7,7a,8,11,11a,11b,12,13,13a,13b-octadecahydro-1H-cyclopenta[a]chrysen-9-yl)benzoic acid], the EC50 worked out at 1.2 nM.

Regarding `CC(C)[C@@H]1CC[C@]2(C(=O)O)CC[C@]3(C)[C@H](CC[C@@H]4[C@@]5(C)[C@@H](O)C=C(c6ccc(C(=O)O)cc6)C(C)(C)[C@@H]5CC[C@]43C)[C@@H]12` [Example 5, (1S,3aS,5aR,5bR,7aS,11S,11aS,11bS,13aR,13bR)-9-(4-carboxyphenyl)-11-hydroxy-1-isopropyl-5a,5b,8,8,11a-pentamethyl-2,3,3a,4,5,5a,5b,6,7,7a,8,11,11a,11b,12,13,13a,13b-octadecahydro-1H-cyclopenta[a]chrysene-3a-carboxylic acid], the EC50 was 410 nM.

Take `CC(C)[C@@H]1CC[C@]2(C(=O)O)CC[C@]3(C)[C@H](CC[C@@H]4[C@@]5(C)[C@H](O)C=C(c6ccc(C(=O)O)cc6)C(C)(C)[C@@H]5CC[C@]43C)[C@@H]12` [Example 6, (1S,3aS,5aR,5bR,7aS,11R,11aS,11bS,13aR,13bR)-9-(4-carboxyphenyl)-11-hydroxy-1-isopropyl-5a,5b,8,8,11a-pentamethyl-2,3,3a,4,5,5a,5b,6,7,7a,8,11,11a,11b,12,13,13a,13b-octadecahydro-1H-cyclopenta[a]chrysene-3a-carboxylic acid]: the EC50 turned out to be 1730 nM.

With `C=C(C)[C@@H]1CC[C@]2(C(=O)O)C[C@@H]3OC(C)(C)O[C@H]4C[C@H]5C(C)(C)C(c6ccc(C(=O)O)cc6)=CC[C@]5(C)[C@H]5CC[C@H]([C@@H]12)[C@]3(C)[C@]45C` [Example 1, (1R,3aS,4aS,4a1R,7aS,7a1R,8aR,12aS,12bR,14aR,14bR)-10-(4-carboxyphenyl)-4a1,6,6,7a1,9,9,12a-heptamethyl-1-(prop-1-en-2-yl)-2,3,3a,4,4a,4a1,7a,7a1,8,8a,9,12,12a,12b,13,14,14a,14b-octadecahydro-1H-cyclopenta[1,2]chryseno[4,5-def][1,3]dioxepine-3a-carboxylic acid], the EC50 was 40 nM.

With `C=C(C)[C@@H]1CC[C@]2(NCCN3CCS(=O)(=O)CC3)C[C@H](O)[C@]3(C)[C@H](CC[C@@H]4[C@@]5(C)CC=C(c6ccc(C(=O)O)cc6)C(C)(C)[C@@H]5C[C@H](O)[C@]43C)[C@@H]12` [Example 3, 4-((1R,3aS,5S,5aR,5bR,6S,7aR,11aS,11bR,13aR,13bR)-3a-((2-(1,1-dioxidothiomorpholino)ethyl)amino)-5,6-dihydroxy-5a,5b,8,8,11a-pentamethyl-1-(prop-1-en-2-yl)-2,3,3a,4,5,5a,5b,6,7,7a,8,11,11a,11b,12,13,13a,13b-octadecahydro-1H-cyclopenta[a]chrysen-9-yl)benzoic acid], the EC50 is 17 nM.

Regarding `CC(C)[C@@H]1CC[C@]2(C(=O)NCCCN3CCS(=O)(=O)CC3)CC[C@]3(C)[C@H](CC[C@@H]4[C@@]5(C)[C@H](F)C=C(c6ccc(C(=O)O)cc6)C(C)(C)[C@@H]5CC[C@]43C)[C@@H]12` [Example 8, 4-((1S,3aS,5aR,5bR,7aS,11R,11aS,11bS,13aR,13bR)-3a-((3-(1,1-dioxidothiomorpholino)propyl)carbamoyl)-11-fluoro-1-isopropyl-5a,5b,8,8,11a-pentamethyl-2,3,3a,4,5,5a,5b,6,7,7a,8,11,11a,11b,12,13,13a,13b-octadecahydro-1H-cyclopenta[a]chrysen-9-yl)benzoic acid], the EC50 is 3.31 nM.

Turning to `C=C(C)[C@@H]1CC[C@]2(C(=O)O)C[C@H](O)[C@]3(C)[C@H](CC[C@@H]4[C@@]5(C)CC=C(c6ccc(C(=O)O)cc6)C(C)(C)[C@@H]5C[C@H](O)[C@]43C)[C@@H]12` [Example 2, (1R,3aS,5S,5aR,5bR,6S,7aR,11aS,11bR,13aR,13bR)-9-(4-carboxyphenyl)-5,6-dihydroxy-5a,5b,8,8,11a-pentamethyl-1-(prop-1-en-2-yl)-2,3,3a,4,5,5a,5b,6,7,7a,8,11,11a,11b,12,13,13a,13b-octadecahydro-1H-cyclopenta[a]chrysene-3a-carboxylic acid], the EC50 amounted to 1560 nM.

Turning to `CC(C)[C@@H]1CC[C@]2(C(=O)O)CC[C@]3(C)[C@H](CC[C@@H]4[C@@]5(C)C(=O)C=C(c6ccc(C(=O)O)cc6)C(C)(C)[C@@H]5CC[C@]43C)[C@@H]12` [Example 4, (1S,3aS,5aR,5bR,7aS,11aS,11bS,13aR,13bR)-9-(4-carboxyphenyl)-1-isopropyl-5a,5b,8,8,11a-pentamethyl-11-oxo-2,3,3a,4,5,5a,5b,6,7,7a,8,11,11a,11b,12,13,13a,13b-octadecahydro-1H-cyclopenta[a]chrysene-3a-carboxylic acid], the EC50 worked out at 29 nM.
